Test results from patent US7030087B2, “Synthetic approach to designed chemical structures” (priority 1996, dated 2006).

Assays:
[1] = test system: endothelial cells (FBHEC, HUVEC); assay: Endothelial cell proliferation assay of βpeptides 1–24 (FIG. 7); format: cell-based; details: for effectiveness at decreasing endothelial cell growth: 0.26 micromolar
Procedure: FIG. […] FIG. 7A provides ^3H-Thymidine incorporation data for FBHEC cells and FIG. 7B provides ^3H-Thymidine incorporation data for HUVEC cells.
βpeptides 1–24 were tested in an endothelial cell proliferation assay using ^3H-thymidine incorporation. […]

P. aeruginosa = assay: Bactericidal activity assay; format: cell-based, Pseudomonas aeruginosa type 1; details: for Bactericidal Activity, % killing: 1.2 × 10^−7 M Peptide, 5 × 105 P. aeruginosa; for Bactericidal Activity, % killing at the effective dose: at the Ed for the same peptide; for Bactericidal Activity, Ed, Effective M dose: dose at which the % in brackets was found
Description: Bacteria: P. aeruginosa type 1 is a clinical isolate maintained in the laboratory. The isolate remains a smooth strain and was serotyped by the scheme of Homma. The Pseudomonas strain was maintained by monthly transfer on blood agar plates.
The peptides can be assayed for bactericidal activity against a variety of organisms such as Pseudomonas aeruginosa type 1, P. cepacia ATCC 25608, E. coli B, and Staphylococcus aureus 502A by standard methods.
Pseudomonas aeruginosa type 1 is a clinical isolate. The isolate remains a smooth strain and was serotyped by the scheme of Homma (Jpn. J. Exp. Med. 46:329, 1976). A rough strain, E. coli B and S. aureus 502A were obtained from Paul Quie, University of Minnesota (Minneapolis, Minn.). The characteristics of the S. aureus strain have been described by Shinefield et al. (Amer. J. Dis. Chil. 105:646, 1963). Pseudomonas cepacia ATCC 25608 can be purchased from the ATCC. S. aureus and E. coli were maintained on nutrient agar plates and the Pseudomonas strains were maintained on blood agar plates.
Pyrogen-free solutions were used throughout the assay and all methods that follow. Log phase bacteria were prepared from a culture in brain heart infusion broth (Hovde et al. Infect. Immun. 54:142–148, 1986) and bacteria were washed and resuspended in saline with adjustment to an optical density at 650 nm to provide a yield of about 3×10^8 CFU/ml. Bacteria were diluted 1:10 in 0.08M citrate phosphate buffer, pH 5.6 or pH 7.0, for use in the assay. S. aureus rapidly lost viability in the pH 5.6 buffer and was studied only at pH 7.0. Bactericidal activity was determined by dose response over peptide concentrations ranging from about […] to about 4.1×10^−9M. Bactericidal activity was determined by dose response, preferably determining LD50 by linear regression.

[2] = test system: endotoxin from E. coli 055:B5; assay: Limulus amoebocyte lysate assay (E-TOXATE), endotoxin neutralization; format: biochemical; details: for Endotoxin Neutralization, % neutralization: 5.0 × 10^−6 M Peptide; for Endotoxin Neutralization, % neutralization / Endotoxin Neutralization, % at the effective dose / Endotoxin Neutralization, Ed, Effective M dose: Table 4; for Endotoxin Neutralization, % at the effective dose: at the Ed
Procedure: The peptides were tested for their ability to neutralize endotoxin. Quantitative endotoxin activities for these peptides were measured by Limulus amoebocyte lysate assay.
Limulus amoebocyte lysate assay: The ability of synthetic peptides to neutralize endotoxin was detected with the E-TOXATE kit manufactured by Sigma Chemicals (St. Louis, Mo.). […] Peptide or B/PI was incubated with LPS at room temperature for 5 min in 100 ul of a 1:2 dilution of pyrogen-free saline (pH 6.4). The reaction was started by addition of 100 ul of amoebocyte lysate and the final volume was 200 ul. Assuming a 10,000 molecular weight for LPS, the approximate molar ration of B/PI:LPS at neutralization was 3000 to 1.
The peptides were tested according to the method provided above. […] BG38L was used as a positive control in these experiments.

ICAM-1 = ICAM-1 expression on endothelial cells (immunofluorescence, FACScan); format: cell-based, human; details: 10 ng/ml bFGF for 3 days, 100 μg/ml added simultaneously
Procedure: In a first series of experiments, PF4 and βpep peptides were tested for their ability to prevent bFGF (fibroblast growth factor) mediated downregulation of ICAM-1. […] Simultaneously 100 μg/ml of each PF4, βpep-14, βpep-16, or medium was added. Mean ICAM-1 fluorescence intensity values were determined.
(§1) Since the in vivo situation of tumor associated EC involves the low expression or even absence of ICAM-1, the next set of experiments aimed to study the ability to reinduce ICAM-I expression after bFBF preincubation. […] In these experiments, HUVEC were pretreated for 3 days with bFGF, subsequently PF4 was added for 3 days and, where indicated in the last 16 hours of culture 4 ng/ml TNFα was added. Human umbilical vein derived endothelial cells (HUVEC) were harvested from normal human umbilical cords by perfusion with 0.125% trypsin/EDTA as described previously. Cells were cultured in fibronectin (FN) coated tissue culture flasks in culture medium (RPMI-1640 with 20% human serum (HS), supplemented with 2 mM glutamine and 100 U/ml penicillin and 0.1 mg/ml streptomycin). Immunofluorescence using indirect PE-conjugated reagents required three separate incubations. 1×10^5 EC were fixed for 1 hour in 1% paraformaldehyde, resuspended in 20 μl appropriately diluted Mab and incubated for 1 hour on ice. Subsequently, cells were washed two times in PBS/BSA (0.1%) and incubated for another 30 minutes with biotinylated rabbit-anti-mouse Ig (Dako, Glostrup, Denmark). After another 2 washings, cells were incubated with streptavidin-phycoerythrin conjugate (Dako). Stained cells were analyzed on a FACScan flowcytometer. Data analysis was performed using PCLysys software (Becton Dickinson, Mountain View, Calif.). Statistical significance of observed differences was determined using the Student's t-test.
The energy of EC to stimulation with inflammatory cytokines was the subject of a next series of experiments. For these experiments, HUVEC (human vascular endothelial cells) were pretreated with 10 ng/ml bFGF for 3 days. Subsequently, cells are subcultured for 3 days with […] in the presence of PF4. For the last 16 hours of the culture 4 ng/ml TNFα was added to induce upregulation of ICAM-1. […] The regulation of ICAM-1 at the protein level was confirmed in Northern blot analysis for detection of ICAM-1 message. In these experiments, HUVEC were cultured for 3 days with bFGF and treated for the last 4 and 24 hours with PF4 (100 μg/ml). TNFα was added 2 hours before isolation of RNA. RNA from a subconfluent EC cultures (75 cm^2 Petri-dishes) incubated with bFGF for different time-points was isolated using an RNA-zol kit (Campro Scientific, Houston, Tex.). Total RNA (10 μg) for each sample was separated in a 0.8% formaldehyde-denaturing gel, transferred to nitrocellulose (Hybond N+, Amersham International, Amersham, UK) and hybridized to a ^32P-labelled 1.9 Kb c-DNA probe, containing the functional sequence of the human ICAM-1 gene (a gift from Dr. B. Seed). Membranes were washed at a high stringency in 0.2×SSC, 0.1% SDS at 50° C. for 1 hour. Filters were exposed to X-ray films (Kodak X-omat, Eastman Kodak Company, Rochester, N.Y.) using an intensifying screen at −80° C. for not less than 12 hr. Autoradiograms were subjected to scanning using a laser densitometer (Model GS670, Bio-Rad, Hercules, Calif.) and data were analysed with the Molecular Analyst PC™ software. The intensity of the major ICAM-1 mRNA transcript was normalized with respect to actin mRNA expression used as a control.

EC (endothelial cells) = assay: EC proliferation, 3[H]thymidine incorporation assay; format: cell-based
Procedure: as §1
EC proliferation was measured using a ^3[H]thymidine incorporation assay. EC were seeded in flatbottomed 96-well tissue culture plates (5000 cells/well) and grown for 3 days, in culture medium. In some cultures the proliferation of EC was enhanced by incubation with 10 ng/ml bFGF. During the list 6 hours of the assay, the culture was pulsed with 0.5 μCi [methyl-^3H]thymidine/well. Results are expressed as the arithmetic mean counts per minute (cpm) of triplicate cultures.

[3] = 0.02 U (0.2 pg) endotoxin from E. coli 055:B5
[4] = dose at which the % in brackets was found
[5] = expt 2 (first, r11), 1 μg/ml, 10 ng/ml bFGF, medium 29079 ± 2506
[6] = expt 2 (first, r11), 1 μg/ml, no bFGF, medium 14296 ± 2490
[7] = expt 2 (first, r11), 10 μg/ml, 10 ng/ml bFGF, medium 29079 ± 2506
[8] = expt 2 (first, r11), 10 μg/ml, no bFGF, medium 14296 ± 2490
[9] = expt 2 (first, r11), 100 μg/ml, 10 ng/ml bFGF, medium 29079 ± 2506
[10] = expt 2 (first, r11), 100 μg/ml, no bFGF, medium 14296 ± 2490
[11] = expt 2 (second, r19), 1 μg/ml, 10 ng/ml bFGF, medium 52808 ± 4092
[12] = expt 2 (second, r19), 1 μg/ml, no bFGF, medium 6780 ± 713
[13] = expt 2 (second, r19), 10 μg/ml, 10 ng/ml bFGF, medium 52808 ± 4092
[14] = expt 2 (second, r19), 10 μg/ml, no bFGF, medium 6780 ± 713
[15] = expt 2 (second, r19), 100 μg/ml, 10 ng/ml bFGF, medium 52808 ± 4092
[16] = expt 2 (second, r19), 100 μg/ml, no bFGF, medium 6780 ± 713

Row | Sequence | effectiveness at decreasing endothelial cell growth [1] | Bactericidal Activity, % killing (P. aeruginosa) [%] | Bactericidal Activity, % killing at the effective dose (P. aeruginosa) | Bactericidal Activity, Ed, Effective M dose (P. aeruginosa) [nM] | endotoxin neutralizing activity (in words) [2] | Endotoxin Neutralization, % neutralization [2, 3] | Endotoxin Neutralization, % at the effective dose [2] [%] | Endotoxin Neutralization, Ed, Effective M dose [2, 4] [µM] | bFGF mediated downregulation of ICAM-1 (in words) (ICAM-1) | EC proliferation in vitro (in words) (EC (endothelial cells)) | (3H)-thymidine incorporation (EC (endothelial cells); [5]) [cpm] | (3H)-thymidine incorporation (EC (endothelial cells); [6]) [cpm] | (3H)-thymidine incorporation (EC (endothelial cells); [7]) [cpm] | (3H)-thymidine incorporation (EC (endothelial cells); [8]) [cpm] | (3H)-thymidine incorporation (EC (endothelial cells); [9]) [cpm] | (3H)-thymidine incorporation (EC (endothelial cells); [10]) [cpm] | (3H)-thymidine incorporation (EC (endothelial cells); [11]) [cpm] | (3H)-thymidine incorporation (EC (endothelial cells); [12]) [cpm] | (3H)-thymidine incorporation (EC (endothelial cells); [13]) [cpm] | (3H)-thymidine incorporation (EC (endothelial cells); [14]) [cpm] | also measured
1 | SIQDLKVSLNLFRKQAKWKIIVKLNDGRELSLD [βpep-23] | about 30% | 0 | 45.8% | 480 | best endotoxin neutralizing activity | 100% | 65.7 | 1.2 | – | – | – | – | – | – | – | – | – | – | – | – | –
2 | SIQDLNVSMKLFRKQAKWKIIAKLNDGRELSLD [βpep-16] | – | 0 | 24.3% | 960 | – | 100% | 16.5 | 1.2 | complete block of bFGF mediated downregulation | angiostatic | 35447 ± 2621 | 15039 ± 2020 | 33663 ± 2572 | 11881 ± 2545 | 7852 ± 875 | 4929 ± 749 | 47727 ± 447 | 7450 ± 737 | 44919 ± 2081 | 6148 ± 1370 | (3H)-thymidine incorporation (EC (endothelial cells); [15]): 27071 ± 3277 cpm; (3H)-thymidine incorporation (EC (endothelial cells); [16]): 2669 ± 370 cpm
3 | SIQFLKVSLNLDRKQAKWKIIVKLNDGRELSLD [βpep-24] | about 30% | – | – | – | – | – | – | – | – | – | – | – | – | – | – | – | – | – | – | – | control of endothelial cell proliferation (in words) [1]: very good at controlling cell proliferation
4 | ANIKLSVEMKLFKRHLKWKIIVKLNDGRELSLD [βpep-8] | – | 0 | (28.1), n = 3% | 960 | best endotoxin neutralizing activity | 100% | 77.9 | 1.2 | – | – | – | – | – | – | – | – | – | – | – | – | control of endothelial cell proliferation (in words) [1]: little cell proliferation activity; Endotoxin Neutralizing Activity, % neutralization ([2]; 5.0 × 10^−5 M peptide, 0.02 U (0.2 pg) endotoxin from E. coli 055:B5, Table 3): 100%; Endotoxin neutralization, ED, Effective M dose ([2]; Table 3, dose at which the % in brackets was found): 1.2 µM
5 | SIQDLNVSMKLFRKQAKWKLIVKLNDGRELSLD [βpep-14] | – | 0 | 39.9% | 960 | – | 38.8 n = 1% | – | – | complete block of bFGF mediated downregulation | angiostatic | 28695 ± 1062 | 14184 ± 1775 | 29530 ± 1608 | 9886 ± 2114 | 6585 ± 132 | 3774 ± 299 | 48443 ± 2700 | 7214 ± 1668 | 52126 ± 1258 | 6074 ± 899 | (3H)-thymidine incorporation (EC (endothelial cells); [15]): 7663 ± 715 cpm; (3H)-thymidine incorporation (EC (endothelial cells); [16]): 1062 ± 325 cpm
